Experimental data: US20060135483A1, “Oxygen/nitrogen heterocycle inhibitors of tyrosine phosphatases” (priority 2004, published 2006)

Biological target: T1, PTP-1B (Homo sapiens, UniProt P18031)
T1 construct: PTP-1B (purified, 1 mg/mL) as a 1:250 dilution
T1 sequence (P18031 1-321 limits assumed): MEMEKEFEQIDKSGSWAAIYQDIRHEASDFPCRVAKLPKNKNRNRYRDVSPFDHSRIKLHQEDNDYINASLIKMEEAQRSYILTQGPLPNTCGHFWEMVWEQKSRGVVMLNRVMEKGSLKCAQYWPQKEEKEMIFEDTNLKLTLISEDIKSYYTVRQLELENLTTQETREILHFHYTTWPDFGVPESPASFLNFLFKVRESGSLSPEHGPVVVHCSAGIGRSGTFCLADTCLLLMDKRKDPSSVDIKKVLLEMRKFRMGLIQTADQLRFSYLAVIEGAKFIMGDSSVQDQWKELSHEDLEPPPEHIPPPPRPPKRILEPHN
Assay: pNPP assay for tyrosine phosphatase inhibitory activity
Format: biochemical
Conditions: pNPP substrate 10 mM, 30° C., 10 minutes, absorbance at 405 nm
Procedure: The compounds provided herein are evaluated for biological activity as inhibitors of PTP-1B using, for example, a pNPP assay. Such an assay can be used to screen compounds for tyrosine phosphatase inhibitory activity as shown in Example 39.
A 5× stock of pNPP (p-nitrophenol phosphate) substrate is prepared as 50 mM pNPP in assay buffer. Various tyrosine phosphatase solutions can be prepared as follows: • PTP-1B (purified, 1 mg/mL) as a 1:250 dilution (to a final concentration of 4:g/mL); • TC-PTP (NEB, 1000 units in 100:L) as a 1:50 dilution (to a final concentration of 2 U/10:L (4:g/mL)); • CD45 (Calbiochem, 20:g, 400 units in 100: L) as a 1 :50 dilution (to a final concentration of 0.8 U/10:L (4:g/mL)); • LAR (NEB, 1000 units in 200:L) as a 1:75 dilution (to a final concentration of 0.7 U/10:L (4:g/mL)); and • PTP-β (UBI, #14-350, 10,000 units, 40:g/571:L) as a 1:17.5 dilution (to a final concentration of 10 U/10:L (4:g/mL));
The compound to be tested is prepared as 1:16.7 and 1:50 dilutions from stock in a total volume of 1 00:M DMSO to give final concentrations of 626 and 200:M. The reaction mixtures are prepared in a 96-well microtiter plate (on ice) as 55:L assay buffer, 5:L of the diluted compound (to a final concentration of 31.3 and 10:M), 20:L of the pNPP substrate solution (to a final concentration of 10 mM) and 20:L PTPase in assay buffer. The reactants are mixed well, the plate placed in a water bath at 30° C. and incubated for 10 minutes. The reaction is then terminated by adding 1 OO:L of 2M K2CO3 per well, and the absorbance is measured at 405 nm by conventional means.
Unless otherwise indicated, this assay was used to determine activity for the selected compounds whose activity is recorded in Table 1 and Table 2.

Compound	IC50 (Table 1) [nM]	IC50 (Table 2) [nM]
O=C(O)c1ccc(CN(c2ccc(Cl)c(Cl)c2)c2nnc(-c3cccc(Oc4cccc(C(=O)O)c4)c3)o2)cc1 [Example 21]	10000 to 100000	–
COC(=O)c1cccc(Oc2cccc(-c3nnc(N(Cc4ccc(C(F)(F)P(=O)(O)O)cc4)c4ccc(Cl)c(Cl)c4)o3)c2)c1 [Example 22, 3-[3-(5-{(3,4-Dichloro-phenyl)-[4-(difluoro-phosphono-methyl)-benzyl]-amino}-[1,3,4]oxadiazol-2-yl)-phenoxy]-benzoic acid methyl ester]	1000 to 10000	–
O=C(O)c1cccc(Oc2cccc(-c3nnc(N(Cc4ccc(C(F)(F)P(=O)(O)O)cc4)c4ccc(Cl)c(Cl)c4)o3)c2)c1 [Example 23, 3-[3-(5-{(3,4-Dichloro-phenyl)-[4-(difluoro-phosphono-methyl)-benzyl]-amino}-[1,3,4]oxadiazol-2-yl)-phenoxy]-benzoic acid]	1000 to 10000	–
COC(=O)c1cccc(Oc2cccc(-c3nnc(N(Cc4ccc(C(F)(F)P(=O)(O)O)c(Br)c4)c4ccc(Cl)c(Cl)c4)o3)c2)c1 [Example 24, 3-(3-{5-[[3-Bromo-4-(difluoro-phosphono-methyl)-benzyl]-(3,4-dichloro-phenyl)-amino]-[1,3,4]oxadiazol-2-yl}-phenoxy)-benzoic acid methyl ester]	500 to 1000	–
O=C(O)c1cccc(Oc2cccc(-c3nnc(N(Cc4ccc(C(F)(F)P(=O)(O)O)c(Br)c4)c4ccc(Cl)c(Cl)c4)o3)c2)c1 [Example 25, 3-(3-{5-[[3-Bromo-4-(difluoro-phosphono-methyl)-benzyl]-(3,4-dichloro-phenyl)-amino]-[1,3,4]oxadiazol-2-yl}-phenoxy)-benzoic acid]	100 to 500	–
CN(Cc1ccc(C(F)(F)P(=O)(O)O)c(Br)c1)c1ncc(-c2ccc(-c3ccccc3C(=O)O)cc2)o1 [Example 26, 4′-{2-[[3-Bromo-4-(difluoro-phosphono-methyl)-benzyl]-methyl-amino]-oxazol-5-yl}-biphenyl-2-carboxylic acid]	–	500 to 1000
O=C(O)c1ccccc1-c1ccc(-c2cnc(N(Cc3ccc(C(F)(F)P(=O)(O)O)c(Br)c3)c3ccccc3)o2)cc1 [Example 27, 4′-{2-[[3-Bromo-4-(difluoro-phosphono-methyl)-benzyl]-phenyl-amino]-oxazol-5-yl}-biphenyl-2-carboxylic acid]	–	100 to 500
O=C(O)c1ccccc1-c1ccc(-c2cnc(N(Cc3ccc(C(F)(F)P(=O)(O)O)c(Br)c3)c3ccc(F)cc3)o2)cc1 [Example 28, 4′-{2-[[3-Bromo-4-(difluoro-phosphono-methyl)-benzyl]-(4-fluorophenyl)-amino]-oxazol-5-yl}-biphenyl-2-carboxylic acid]	–	100 to 500
O=C(O)c1ccccc1-c1ccc(-c2cnc(N(Cc3ccc(C(F)(F)P(=O)(O)O)c(Br)c3)c3ccc(Cl)cc3)o2)cc1 [Example 29, 4′-{2-[[3-Bromo-4-(difluoro-phosphono-methyl)-benzyl]-(4-chlorophenyl)-amino]-oxazol-5-yl}-biphenyl-2-carboxylic acid]	–	100 to 500
O=C(O)c1ccccc1-c1ccc(-c2cnc(N(Cc3ccc(C(F)(F)P(=O)(O)O)c(Cl)c3)c3ccc(Cl)cc3)o2)cc1 [Example 30, 4′-{2-[[3-Chloro-4-(difluoro-phosphono-methyl)-benzyl]-(4-chlorophenyl)-amino]-oxazol-5-yl}-biphenyl-2-carboxylic acid]	–	100 to 500
CS(=O)(=O)c1ccc(-c2cnc(N(Cc3ccc(C(F)(F)P(=O)(O)O)c(Br)c3)c3ccc(F)cc3)o2)cc1 [Example 32, {[2-Bromo-4-({(4-fluoro-phenyl)-[5-(4-methanesulfonyl-phenyl)-oxazol-2-yl]-amino}-methyl)-phenyl]-difluoro-methyl}-phosphonic acid]	–	< 100
CC(C)OC(=O)OC(C)OP(=O)(O)C(F)(F)c1ccc(CN(c2ccc(Cl)c(Cl)c2)c2ncc(-c3ccc(S(C)(=O)=O)cc3)o2)cc1Br (centres unmarked) [Example 33, {[2-Bromo-4-({(3,4-dichloro-phenyl)-[5-(4-methanesulfonyl-phenyl)-oxazol-2-yl]-amino}-methyl)-phenyl]-difluoro-methyl}-phosphonic acid mono-(1-isopropoxycarbonyloxy-ethyl) ester]	–	10000 to 100000
CCOC(=O)C(C)NP(=O)(O)C(F)(F)c1ccc(CN(c2ccc(Cl)c(Cl)c2)c2ncc(-c3ccc(S(C)(=O)=O)cc3)o2)cc1Br [Example 34, {[2-Bromo-4-({(3,4-dichloro-phenyl)-[5-(4-methanesulfonyl-phenyl)-oxazol-2-yl]-amino}-methyl)-phenyl]-difluoro-methyl}-phosphonic acid mono-(L-alanylethyl ester) amidate]	–	100 to 500
CC(C)(C)C(=O)OCOP(=O)(OCOC(=O)C(C)(C)C)C(F)(F)c1ccc(CN(c2ccc(F)cc2)c2ncc(-c3ccc(S(C)(=O)=O)cc3)o2)cc1Br [Example 35, 2,2-Dimethyl-propionic acid {[2-bromo-4-({(4-fluoro-phenyl)-[5-(4-methanesulfonylphenyl)-oxazol-2-yl]-amino}-methyl)-phenyl]-difluoro-methyl}-(2,2-dimethyl-propionyloxymethoxy)-phosphinoyloxymethyl ester]	–	10000 to 100000
NC(=O)c1ccc(-c2cnc(N(Cc3ccc(C(F)(F)P(=O)(O)O)c(Br)c3)c3ccc(F)cc3)o2)cc1 [Example 37, [(2-Bromo-4-{[[5-(4-carbamoyl-phenyl)-oxazol-2-yl]-(4-fluoro-phenyl)-amino]-methyl}-phenyl)-difluoro-methyl]-phosphonic acid]	–	100 to 500
O=P(O)(O)C(F)(F)c1ccc(CN(c2ccc(F)cc2)c2ncc(-c3ccc(-c4nn[nH]n4)cc3)o2)cc1Br [Example 38, ({2-Bromo-4-[((4-fluoro-phenyl)-{5-[4-(2H-tetrazol-5-yl)-phenyl]-oxazol-^2-yl}-amino)-methyl]-phenyl}-difluoro-methyl)-phosphonic acid]	–	< 100
CS(=O)(=O)c1ccc(-c2cnc(N(Cc3ccc(OCC(=O)O)c(Br)c3)c3ccc(Cl)c(Cl)c3)o2)cc1 [[2-Bromo-4-({(3,4-dichloro-phenyl)-[5-(4-methanesulfonyl-phenyl)-oxazol-2-yl]-amino}-methyl)-phenoxy]-acetic acid]	10000 to 100000	–
CS(=O)(=O)c1ccc(-c2cnc(N(Cc3ccc(C(F)(F)C(=O)O)cc3)c3ccc(Cl)c(Cl)c3)o2)cc1 [[4-({(3,4-Dichloro-phenyl)-[5-(4-methanesulfonyl-phenyl)-oxazol-2-yl]-amino}-methyl)-phenyl]-difluoro-acetic acid]	10000 to 100000	–
COc1cccc(CN(Cc2ccc(C(F)(F)P(=O)(O)O)c(Br)c2)c2ncc(-c3ccc(S(C)(=O)=O)cc3)o2)c1 [[(2-Bromo-4-{[[5-(4-methanesulfonyl-phenyl)-oxazol-2-yl]-(3-methoxy-benzyl)-amino]-methyl}-phenyl)-difluoro-methyl]-phosphonic acid]	–	100 to 500
COCCCN(Cc1ccc(C(F)(F)P(=O)(O)O)c(Br)c1)c1ncc(-c2ccc(S(C)(=O)=O)cc2)o1 [[(2-Bromo-4-{[[5-(4-methanesulfonyl-phenyl)-oxazol-2-yl]-(3-methoxy-propyl)-amino]-methyl}-phenyl)-difluoro-methyl]-phosphonic acid]	–	100 to 500
COc1ccccc1N(Cc1ccc(C(F)(F)P(=O)(O)O)c(Cl)c1)c1ncc(-c2ccc(S(C)(=O)=O)cc2)o1 [[(2-Chloro-4-{[[5-(4-methanesulfonyl-phenyl)-oxazol-2-yl]-(2-methoxy-phenyl)-amino]-methyl}-phenyl)-difluoro-methyl]-phosphonic acid]	–	500 to 1000
COP(=O)(O)C(F)(F)c1ccc(CN(c2ccc(Cl)c(Cl)c2)c2ncc(-c3ccc(S(C)(=O)=O)cc3)o2)cc1Br [{[2-Bromo-4-({(3,4-dichloro-phenyl)-[5-(4-methanesulfonyl-phenyl)-oxazol-2-yl]-amino}-methyl)-phenyl]-difluoro-methyl]-phosphonic acid monomethyl ester]	10000 to 100000	–
CCCCCCCCCCCCCCCCOCCCOP(=O)(O)C(F)(F)c1ccc(CN(c2ccc(Cl)c(Cl)c2)c2ncc(-c3ccc(S(C)(=O)=O)cc3)o2)cc1Br [{[2-Bromo-4-({(3,4-dichloro-phenyl)-[5-(4-methanesulfonyl-phenyl)-oxazol-2-yl]-amino}-methyl)-phenyl]-difluoro-methyl}-phosphonic acid mono-(3-hexadecyloxy-propyl) ester]	–	1000 to 10000
